Values joined by “and” are separate entries in the source; they are usually repeats but may differ in a detail not shown here. Identical values can stand only once. Like-named read-outs stand apart in the source and are kept apart here.
How the values were obtained:
COX-2 = molecular target: T1, COX-2 (Mus musculus, UniProt Q05769); experiment: cell-based
T1 construct: LPS, which was used to induce the expression of COX-2 in the RAW 264.7 cells; host or cells: RAW 264.7 (murine), LPS-stimulated
T1 sequence (Q05769 18-604): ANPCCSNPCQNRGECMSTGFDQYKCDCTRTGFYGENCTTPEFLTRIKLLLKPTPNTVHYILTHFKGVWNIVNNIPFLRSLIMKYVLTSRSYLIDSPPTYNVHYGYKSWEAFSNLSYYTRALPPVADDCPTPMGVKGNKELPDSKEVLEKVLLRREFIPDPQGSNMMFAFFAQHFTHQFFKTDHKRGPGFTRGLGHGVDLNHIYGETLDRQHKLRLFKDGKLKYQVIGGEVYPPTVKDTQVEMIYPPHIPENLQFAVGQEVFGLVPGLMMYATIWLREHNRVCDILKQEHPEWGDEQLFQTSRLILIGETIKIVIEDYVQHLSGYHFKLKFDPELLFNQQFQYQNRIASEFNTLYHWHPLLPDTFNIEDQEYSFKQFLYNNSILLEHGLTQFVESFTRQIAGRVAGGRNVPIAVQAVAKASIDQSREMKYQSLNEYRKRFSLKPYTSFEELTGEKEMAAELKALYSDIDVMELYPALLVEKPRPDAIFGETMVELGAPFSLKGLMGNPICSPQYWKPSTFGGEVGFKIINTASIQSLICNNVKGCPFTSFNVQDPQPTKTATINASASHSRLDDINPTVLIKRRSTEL
Description: The DMEM growth medium was made as follows 50 mL of heat inactivated FBS and 5 mL of penicillin/streptomycin were added to a 500 mL bottle of DMEM and stored at 4° C. This was warmed to 37° C. in a water bath before use and for best results should be used within three months.
On day one of the experiment, the log phase 264.7 cells were plated at 8×10^4 cells per well in 0.2 mL growth medium per well in a 96-well tissue culture plate. After 6 to 8 hours post plating, 100 μL fresh medium. […] It was mixed until dissolved and stored at 4° C. Immediately before use, it was thawed at room temperature or in a 37° C. water bath. A new solution was prepared every 60 days.
On day two of the experiment, the test materials were prepared as 1000× stock in DMSO. For example, if the final concentration of the test material was to be 10 μg/mL, a 10 mg/mL stock was prepared by dissolving 10 mg of the test material in 1 mL of DMSO. Fresh test materials were prepared on day 2 of the experiment. In 1.7 mL microfuge tubes, 1 mL DMEM without FBS was added to obtain test concentrations of 0.05, 0.10, 0.5, and 1.0 μg/mL. 2 μL of the 1000×DMSO stock of the test material was added to the 1 mL of medium without FBS. The tube contained the final concentration of the test material was concentrated 2-fold. The tube was placed in incubator for 10 minutes to equilibrate.
One-hundred mL of medium was removed from each well of the cell plates prepared on day one. One-hundred mL of equilibrated 2× final concentration the test compounds were added to cells and incubated for 90 minutes. LPS in DMEM without FBS was prepared by adding 44 μL of the 1 mg/mL DMSO to 10 mL of medium. For each well of cells to be stimulated, 20 μL of LPS (final concentration of LPS is 0.4 μg/mL of LPS) was added.
Determination of PGE2 Concentration in Medium
Equipment—freezer, 30° C.
General Procedure—EIA Buffer was prepared by diluting the contents of the EIA Buffer Concentrate (vial #4) with 90 ml of Ultra-pure water. Vial #4 was rinsed several times to ensure all crystals had been removed and was then placed into a 100 mL storage bottle and stored at 4° C.
The Wash Buffer was prepared by diluting Wash Buffer Concentrate (vial #5) 1:400 with Ultra-pure water. 0.5 ml/liter of Tween 20 (vial #5a) was then added (using a syringe for accurate measurement). For one liter Wash Buffer add 2.5 ml Wash Buffer Concentrate, 0.5 ml Tween-20, and 997 ml Ultra-pure water. The solution was stored in a 1 liter storage bottle at 4° C.
The Prostaglandin E2 standard was reconstituted as follows. A200 μL pipet tip was equilibrated by repeatedly filling and expelling the tip several times in ethanol. The tip was used to transfer 100 μL of the PGE2 Standard (vial #3) into a 1.7 mL microfuge tube. 900 μL Ultra-pure water was added to the tube and stored at 4° C., which was stable for ˜6 weeks. The Prostaglandin E2 acetylcholinesterase tracer was reconstituted as follows. 100 μL PGE2 tracer (vial #2) was mixed with 30 mL of the EIA Buffer in a 50 mL centrifuge tube and stored at 4° C.
The Prostaglandin E2 monoclonal antibody was reconstituted as follows. 100 μL PGE2 Antibody (vial #1) was mixed with 30 mL of the EIA buffer in a 50 mL centrifuge tube and stored at 4° C.
DMEM with penicillin/streptomycin was prepared by adding 5 mL penicillin/streptomycin into 5 mL DMEM and stored at 4° C.
The plates were set up as follows: Each plate contained a minimum of two blanks (B), two non-specific binding wells (NSB), two maximum binding wells (B0), and an eight point standard curve run in duplicate (S1-S8).

COX-1 enzyme (ovine) = molecular target: T2, COX-1 enzyme (ovine) (Ovis aries, UniProt P05979); experiment: COX-1 enzyme inhibition (COX-1 synthesis of PGE2); type: biochemical
T2 construct: purchased Cayman Chemical $60100
T2 sequence (P05979 25-600): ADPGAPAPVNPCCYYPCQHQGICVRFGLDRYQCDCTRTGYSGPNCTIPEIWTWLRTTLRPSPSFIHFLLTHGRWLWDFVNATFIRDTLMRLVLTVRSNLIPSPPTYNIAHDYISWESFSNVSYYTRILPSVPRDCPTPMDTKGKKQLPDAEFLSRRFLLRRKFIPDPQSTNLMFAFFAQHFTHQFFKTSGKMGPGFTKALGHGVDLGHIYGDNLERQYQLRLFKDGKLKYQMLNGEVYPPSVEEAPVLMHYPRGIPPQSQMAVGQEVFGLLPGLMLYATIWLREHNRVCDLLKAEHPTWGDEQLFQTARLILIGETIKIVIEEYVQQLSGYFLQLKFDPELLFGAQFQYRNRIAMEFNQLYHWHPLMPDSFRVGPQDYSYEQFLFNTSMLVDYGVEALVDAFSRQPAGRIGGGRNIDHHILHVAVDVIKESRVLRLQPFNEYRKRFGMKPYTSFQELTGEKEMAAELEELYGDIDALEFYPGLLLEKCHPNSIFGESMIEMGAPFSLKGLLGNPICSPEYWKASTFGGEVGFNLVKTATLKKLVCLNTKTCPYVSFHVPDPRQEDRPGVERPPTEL
Description: General Prodecure—Oxygen-free 1.0M Tris-HCl buffer (pH 8.0) was prepared as follows: In a 1000 mL beaker, 12.11 g Trizma HCl was dissolved into 900 mL ultra-pure water. The beaker was placed on a stir plate with a stir bar. NaOH was added until the pH reached 8.0. The volume was adjusted to a final volume of 100 mL and stored in a 1000 mL storage bottle.
The Tris-HCl buffer was placed into a vacuum chamber with the top loosened and the air pump was turned on until the buffer stopped bubbling. The vacuum chamber was then turned off and the storage bottle was tightly covered. This steps was repeated each time when oxygen-free Tris-HCl buffer was used.
One mL cofactor solution was prepared by adding 1.3 mg (−) epinephrine, 0.3 mg reduced glutathione and 1.3 mg hematin to 1 mL oxygen free Tris-HCl buffer. The solutions of the test material were prepared as needed, i.e., 10 mg of aspirin was weighed and dissolved into 1 mL DMOS. Enzymes, i.e., prostaglandin E2 or prostaglandin F2alpha, were dissolved in oxygen free Tris-HCl buffer as follows, i.e., on ice, 6.5 μL of enzyme at 40,000 units/mL was taken and added to 643.5 μL of oxygen free Tris-HCl buffer. This enzyme solution is enough for 60 reactions. The COX-1 enzyme solution was prepared as follows: In a 15 mL centrifuge tube, 10 μL centrifuge tube, 10 μL COX-1 enzyme at 40,000 units/mL was added to oxygen free Tris-HCl with 50 μL of the cofactor solution per reaction. The mixture was incubated on ice for five minutes (i.e., for 60 reactions add 65 μL enzyme in oxygen free Tris-HCl buffer with 3.25 mL cofactor solution.
Sixty microliters of the enzyme solution were combined with 20 mL of the test solution in each well of a 96 well plate. […] The plates were preincubated on ice for 10 minutes. Twenty μL arachidonic acid (30 μM) was added and incubated for 15 minutes at 37° C.
The reaction was terminated by adding 10 μL 2 M HCl. The final solution was used as the supernatant for the PGE2 assay.
General Procedure—EIA Buffer was prepared by diluting the contents of the EIA Buffer Concentrate (vial #4) with 90 ml of Ultra-pure water. […]

COX-2 over COX-1 = details: reported, background; cited from earlier work
[1] = RAW 264.7 cell model, read-out: COX-2 IC50 (converted)
[2] = second component alone, PGE2 production by COX-2, RAW 264.7 cells, 24 h LPS, read-out: Second Component IC50 (converted)

SMILES | IC50 (COX-2; [1]) | IC50 (COX-2; [2]) | also measured
C=C1CC[C@@H]2[C@](C)(CO)[C@H](O)CC[C@@]2(C)[C@@H]1C/C=C1/C(=O)OC[C@H]1O [Andrographolide] | 819 µM | 591 µM | SPECIFICITY COX-1/COX-2 (COX-2; ratio COX-1 IC50 / COX-2 IC50): 5.2; IC50 (COX-1 enzyme (ovine); ovine COX-1 enzyme, read-out: COX-1 IC50 (converted)): ~4280 µM and 4280 µM
COc1cc(/C=C/C(=O)CC(=O)/C=C/c2ccc(O)c(OC)c2)ccc1O [Curcumin] | – | – | IC50 (COX-1 enzyme (ovine); COX-1 IC50, ovine COX-1 enzyme): 34.2 µM
C[C@H]1[C@H](C)CC[C@]2(C(=O)O)CC[C@]3(C)C(=CC[C@@H]4[C@@]5(C)CC[C@H](O)C(C)(C)[C@@H]5CC[C@]43C)[C@H]12 [Ursolic Acid, Ursolic acid] | 130 µM | 171 µM | –
CC(=O)Oc1ccccc1C(=O)O [aspirin] | – | – | COX-2 specificity (COX-2 over COX-1): 0.6
